# In patent US20120270819A1, “USE OF COMPOUNDS WITH SGLT-1/SGLT-2 INHIBITOR ACTIVITY FOR PRODUCING MEDICAMENTS FOR TREATMENT OF BONE DISEASE” (SANOFI, priority 2009, published 2012):
# Target: T1, human sodium-dependent glucose transporter 1 (SGLT1, SLC5A1) (Homo sapiens, UniProt P13866)
# T1 construct: Bases 11 to 2005 correspond to the complete coding region of human SGLT1; expressed in transfected cells; host or cells: CHO-TRex cells (Invitrogen), pcDNA4/TO vector, tetracycline-induced
# T1 sequence (P13866 1-664): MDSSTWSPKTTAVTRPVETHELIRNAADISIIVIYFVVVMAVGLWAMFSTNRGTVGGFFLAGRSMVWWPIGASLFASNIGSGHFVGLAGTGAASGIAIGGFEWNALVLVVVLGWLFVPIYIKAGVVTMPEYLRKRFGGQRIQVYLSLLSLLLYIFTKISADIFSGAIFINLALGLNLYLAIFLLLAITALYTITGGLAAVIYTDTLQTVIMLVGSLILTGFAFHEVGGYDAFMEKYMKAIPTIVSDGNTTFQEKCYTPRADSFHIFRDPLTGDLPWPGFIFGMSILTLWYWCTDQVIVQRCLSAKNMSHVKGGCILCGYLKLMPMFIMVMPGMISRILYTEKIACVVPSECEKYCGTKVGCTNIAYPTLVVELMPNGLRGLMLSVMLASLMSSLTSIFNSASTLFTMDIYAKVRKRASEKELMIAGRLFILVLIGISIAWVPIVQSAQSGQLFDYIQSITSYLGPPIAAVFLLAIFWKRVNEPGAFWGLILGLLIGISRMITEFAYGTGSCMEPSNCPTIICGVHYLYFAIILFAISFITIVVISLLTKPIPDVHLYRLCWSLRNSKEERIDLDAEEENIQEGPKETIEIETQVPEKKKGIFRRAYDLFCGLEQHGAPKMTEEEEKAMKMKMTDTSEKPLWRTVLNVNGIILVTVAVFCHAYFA
# Assay: Inhibition of methyl α-D-glucopyranoside uptake in CHO-TRex-hSGLT1 cells
# Format: cell-based
# Conditions: recombinant SGLT1; read-out: IC50 SGLT 1
# Description: A further method for testing the activity of the compounds is the inhibition of the transport activity of the human sodium-dependent glucose transporter 1 (SGLT1, SLC5A1) in vitro:
# 1. Cloning of an Expression Vector for Human SGLT1
# The cDNA for human SGLT1 was introduced into the pcDNA4/TO vector (Invitrogen) by standard methods of molecular biology as described in Sambrook et al. (Sambrook et al., Molecular Cloning, A Laboratory Manual, 2nd Edition). […] Bases 11 to 2005 correspond to the complete coding region of human SGLT1.
# 2. Preparation of a Recombinant Cell Line with Inducible Expression of Human SGLT1
# The expression vector for human SGLT1 was introduced into CHO-TRex cells (Invitrogen) by means of FuGene6 lipofection (Roche). To select single cell clones, 600 μg/ml Zeocin (Invitrogen) was added to the cell culture medium (Nutrient Mixture F-12 (Ham), (Invitrogen) supplemented with 10% fetal calf serum (BD Biosciences), 10 μg/ml blasticidin S(CN Biosciences), 100 units/ml penicillin, 100 units/ml streptomycin). The functionality of the single cell clones resulting from the selection was tested via their uptake activity for radiolabeled methyl α-D-glucopyranoside. The cell clone with the greatest uptake activity for methyl α-D-glucopyranoside, referred to as CHO-TRex-hSGLT1 hereinafter, was selected for further experiment, and cultivation was continued in the presence of 600 μg/ml of zeocin.
# 3. Measurement of the Inhibitory Effect of Test Substances on the Uptake of Methyl-D-qlucopyranoside (-MDG)
# CHO-TRex-hSGLT1 cells were seeded in a concentration of 50 000 cells per well in Cytostar-T scintillating 96-well plates (Amersham Biosciences) in cell culture medium and cultivated for 24 h. Expression of the recombinant human SGLT1 was induced by adding 1 μg/ml tetracyclin for a further 24 h. For α-MDG uptake experiments, the cells were washed with PBS and then starved (PBS supplemented with 10% fetal calf serum) at 37° C. for one hour. […]
# The final concentration of methyl α-D-glucopyranoside in the assay was 50 μM. After an incubation time of 30 min at room temperature, the reaction was stopped by adding 50 μl/well of 10 mM methyl α-D-glucopyranoside in transport assay buffer (4° C.), and the radioactivity uptake by the cells was determined in a MicroBeta Scintillation Microplate Reader (Wallac). The half-maximum inhibitory effect of the test substances (IC50) was determined in the following way: • 1. […] This is the measurement in the absence of substance, measured in sodium-containing transport assay buffer. • 2. […] This is the measurement in the absence of substance, measured in sodium-free transport assay buffer (140 mM choline chloride, 2 mM potassium chloride, 1 mM magnesium chloride, 1 mM calcium chloride, 10 mM HEPES/Tris, pH7.5). • 3. […]
row,IC50 [µM],Compound
1,0.77,COc1ccc(Cc2ccccc2OC2OC(CO)C(F)C(O)C2O)cc1 (stereo not shown) [Example 1 of formula III]
2,0.029,COc1ccc(Cc2c(OC3OC(CO)C(F)C(O)C3O)n[nH]c2C(F)(F)F)cc1 (stereo not shown) [Example 5 of formula II]
3,0.32,CCc1ccc(Cc2ccccc2OC2OC(CO)C(F)C(O)C2O)cc1 (stereo not shown) [Example 20 of formula III]
4,0.027,CC(C)c1[nH]nc(OC2OC(CO)C(F)C(O)C2O)c1Cc1ccc(CCCC(=O)NC(CO)(CO)CO)cc1 (stereo not shown) [Example 21 of formula I]
